Marks after values point to notes of the source that are not given here.
Experiments:
[1] = Ex vivo permeation, Franz cells; assay type: in vitro ADME, porcine
Procedure: Porcine buccal mucosa was used to evaluate the buccal permeation of the phenolic compounds in the extract and the CS-loaded OFs (n = 9). The porcine buccal mucosa was purchased in a local butcher shop, not requiring ethical approval. A Franz cell assembly (9 mm clear jacketed Franz cell with a flat ground joint, 5 ml receptor volume, and permeation area of 0.785 cm^2; PermeGear, Inc., USA) was used. This experiment followed the methodology described by Rodrigues et al. ([32]). In the Franz apparatus, the porcine buccal mucosa was positioned with the cheek side facing the donor chamber, which contained 500 µl (1,000 μg/ml) of the CS extract or the CS-loaded OFs (two square films (2 × 2 cm) with […] of thickness were dissolved in 4 ml of artificial saliva; donor concentration was normalized to ensure equivalence between the extract solution and the film formulation). The receptor chamber was filled with 5 ml PBS, maintained at 37°C, and stirred continuously at 150 rpm. The volume was maintained through the experiments.
(§1) The identification and quantification of the phenolic compounds present in the extract and the OFs, as well as the compounds that permeated from the OFs through in vitro and ex vivo assays, were conducted using an LC-ESI-LTQ-Orbitrap-HRMS equipment with an Accela chromatograph (Thermo Scientific, Hemel Hempstead, UK), a photodiode array detector, a quaternary pump, and a temperature-controlled autosampler coupled to a high-resolution LTQ Orbitrap Velos mass spectrometer (Thermo Scientific, Hemel Hempstead, UK) with an ESI source in negative mode ([33], [34]). The system was controlled using the Xcalibur v3.0 software (ThermoFisher Scientific, Hemel Hempstead, UK). Elution was performed on an Acquity™ UPLC® BEH C18 Column (2.1 × 100 mm, i.d., 1.7 µm particle size, Waters Corporation, Wexford, Ireland) maintained at 30°C.
(§2) Gradient elution was performed with water (A) and acetonitrile (B), both with 0.1% formic acid, with a flow rate and injection volume of 450 µl/min and 5 µl, respectively. The solvent gradient (v/v) of B [t (min), %B] was set as follows: (0, 0), (2, 0), (4, 30), (8, 100), (10, 100), (11, 0), and (14, 0). The samples were analyzed in the full scan mode at a resolving power of 30,000 and m/z 600. Data-dependent MS/MS events were acquired at a resolution of 15,000. Most intense ions were detected via the FTMS mode-triggered data-dependent acquisition mode. Ions that were not sufficiently intense for a data-dependent scan were explored in MSn mode. Precursors were fragmented by collision-induced dissociation using a C-trap with a normalized collision energy (35 V) and an activation time of 10 ms. […] Compounds whose theoretical [M–H]^− values exceeded the MS¹ acquisition range (m/z 100–600) were annotated based on characteristic MSⁿ fragment ions detected within the scan window.
Quantitative analysis was performed by using a validated chromatographic method ([38]).

TR146 cells = test: In vitro permeation, buccal model; assay type: in vitro ADME, human; details: for Permeation (%): from CS extract
Procedure: The in vitro permeability of the bioactive compounds present in OFs (n = 9) was determined using a co-culture model composed of TR146 ([31]). The extract and the CS-loaded OFs were added to the apical side of the model as a stock solution. […] The Transepithelial Electrical Resistance (TEER) of the model was evaluated before, during, and at the end of the permeability assay using an EVOM Epithelial Volthometer equipped with a chopstick electrode (World Precision Instruments, Sarasota, FL, USA).
as §1, §2

| Structure (SMILES) | Quantification of permeated compounds ([1]; CS extract) | Quantification of permeated compounds ([1]; CS-loaded OFs) | Permeation (%) ([1]; from CS extract, 15 min) | Permeation (%) ([1]; from CS extract, 30 min) | Permeation (%) ([1]; from CS-loaded OFs, 15 min) | Quantification of permeated compounds (TR146 cells; CS extract) | Quantification of permeated compounds (TR146 cells; CS-loaded OFs) | Permeation (%) (TR146 cells; 15 min) | Permeation (%) (TR146 cells; 30 min) | Permeation (%) (TR146 cells; 45 min) | Permeation (%) (TR146 cells; 60 min) | Permeation (%) (TR146 cells; 90 min) | Permeation (%) (TR146 cells; 120 min) | Permeation (%) (TR146 cells; 180 min) | Permeation (%) (TR146 cells; 240 min) | Permeation (%) (TR146 cells; 240 min, listed as epicatechin) | Permeation (%) ([1]; from CS-loaded OFs, 30 min) |
| --- | --- | --- | --- | --- | --- | --- | --- | --- | --- | --- | --- | --- | --- | --- | --- | --- | --- |
| N[C@@H](Cc1c[nH]c2ccccc12)C(=O)O [L-Tryptophan] | 4.18 ± 0.26^a mg/ml | 1.18 ± 0.09^a mg/g film | 37.21 ± 0.01^a % | 27.24 ± 0.23^a % | – | – | – | – | – | – | – | – | – | – | – | – | – |
| O=C(O)CCCCCC(=O)O [Pimelic acid] | 26.17 ± 2.25^a mg/ml | 30.41 ± 0.01^a mg/g film | 65.10 ± 1.87^a % | 67.06 ± 2.58^a % | 76.61 ± 4.85^a % | – | – | – | – | – | – | – | – | – | – | – | – |
| O[C@H]1[C@H](O)[C@@H](O)[C@H](O)[C@@H](O)[C@H]1O [Myo-Inositol] | – | – | – | – | – | 0.54 ± 0.01^a mg/ml | 0.42 ± 0.01^a mg/g film | 39.51 ± 0.87^a^,^b % | 79.23 ± 1.43c % | 12.98 ± 0.01^a % | 33.80 ± 0.08^a^,^b % | 30.46 ± 0.05^a^,^b % | 41.34 ± 1.01^a^,^b % | 25.02 ± 0.09^a^,^b % | 56.50 ± 0.37^c % | – | – |
| Oc1cc(O)c2c(c1)O[C@H](c1ccc(O)c(O)c1)[C@H](O)C2 [Epicatechin] | – | – | – | – | – | 0.41 ± 0.03^a mg/ml | 0.36 ± 0.02^a mg/g film | 97.57 ± 1.07^a % | 96.86 ± 2.25^a % | 97.35 ± 1.74^a % | 98.05 ± 3.81^a % | 97.75 ± 5.73^a % | 97.73 ± 6.01^a % | 97.36 ± 2.57^a % | 96.86 ± 1.86^a % | 96.86% | – |
| N[C@@H](Cc1ccccc1)C(=O)O [L-Phenylalanine] | 5.52 ± 0.24^b mg/ml | 0.42 ± 0.01^a mg/g film | 8.67 ± 0.03^a % | 8.57 ± 1.47^a % | – | – | – | – | – | – | – | – | – | – | – | – | – |

Next, values leading:

| Quantification of permeated compounds ([1]; CS extract) | Quantification of permeated compounds ([1]; CS-loaded OFs) | Permeation (%) ([1]; from CS extract, 15 min) | Permeation (%) ([1]; from CS extract, 30 min) | Permeation (%) ([1]; from CS-loaded OFs, 15 min) | Quantification of permeated compounds (TR146 cells; CS extract) | Quantification of permeated compounds (TR146 cells; CS-loaded OFs) | Permeation (%) (TR146 cells; 15 min) | Permeation (%) (TR146 cells; 30 min) | Permeation (%) (TR146 cells; 45 min) | Permeation (%) (TR146 cells; 60 min) | Permeation (%) (TR146 cells; 90 min) | Permeation (%) (TR146 cells; 120 min) | Permeation (%) (TR146 cells; 180 min) | Permeation (%) (TR146 cells; 240 min) | Permeation (%) (TR146 cells; 240 min, listed as epicatechin) | Permeation (%) ([1]; from CS-loaded OFs, 30 min) | Structure (SMILES) |
| --- | --- | --- | --- | --- | --- | --- | --- | --- | --- | --- | --- | --- | --- | --- | --- | --- | --- |
| 23.93 ± 1.12^a mg/ml | 23.67 ± 5.00^a mg/g film | 85.64 ± 4.12^a % | 86.86 ± 3.52^a % | – | – | – | – | – | – | – | – | – | – | – | – | – | O=C(O)CCCCCCCCCC(=O)O [Undecanedioic acid] |
| – | – | – | – | – | 0.70 ± 0.02^a mg/ml | 0.44 ± 0.05^a mg/g film | 8.10 ± 0.02^a % | 23.12 ± 0.56^b % | 28.35 ± 0.83^b % | 28.43 ± 0.41^b % | 42.18 ± 1.08^c % | 27.71 ± 0.72^a % | 53.91 ± 1.07^d % | 52.90 ± 0.73^d % | – | – | COc1cc(C=O)ccc1O [Vanillin] |
| 1.02 ± 0.02^b mg/ml | 0.39 ± 0.01^a mg/g film | 29.36 ± 1.68^a % | 28.33 ± 1.16^a % | 70.71 ± 1.52^b % | – | – | – | – | – | – | – | – | – | – | – | 74.31 ± 1.78^b % | O=C(O)[C@]1(O)C[C@@H](O)[C@@H](O)[C@H](O)C1 [Quinic acid] |

From article PMC12488667, “Orodispersible films containing chestnut shell phenolics for buccal delivery: a preclinical approach for oral mucositis prevention” (Frontiers in Medical Technology, 2025)
